# Measurements as given in patent EP4660184A1 (Eurofarma Laboratórios S.A., priority 2023, dated 2024).
# pIC50: −log10 of the molar value.
# What was measured:
# [1] = biological target: T1, human sodium channels Nav 1.8 (Homo sapiens, UniProt Q9Y5Y9); assay: Automated whole-cell voltage-clamp (ScreenPatch 384P) sodium current block, Nav 1.8; assay type: cell-based; conditions: CHO cells stably expressing human Nav 1.8; inactivation step -40 mV for 8 seconds, test step 10 mV (TP1A); exposure at least five minutes; room temperature; mean if two or more assays; read-out: Nav1.8 IC50
# T1 construct: expressed in transfected cells
# Method: (§1) Biological assays were performed on Chinese hamster ovary (CHO) cells that express human sodium channels Nav 1.8 or Nav 1.7 in a stable manner.
# (§2) The experimental protocol voltage-clamp using the whole cell configuration was established on the automated ScreenPatch® 384P platform (SP384PE, Nanion Technologies, Livingston, NJ) and the results were recorded with a Nanion 384-well Patch Clamp chip (NPC) (Nanion Technologies, Livingston, NJ).
# (§3) Formula I compounds were diluted in eight concentrations in the extracellular solution composed of saline saline solution, buffered with HEPES (mM): NaCl, 137; KCl, 4; CaCl2, 3,8; MgCl2, 1; HEPES, 10; Glucose, 10; pH 7.4. The […], 50; CsF, 90; MgCl2, 5; EGTA, 5; HEPES, 10; pH 7.2. The duration of exposure of each compound with cells expressing Nav 1.7 or Nav 1.8 was at least five minutes and the assays were performed at room temperature.
# (§4) The measurements of the sodium currents of Nav 1.8 and Nav 1.7 were obtained using the voltage protocol described below.
# (§5) A holding voltage of -100 mV was established followed by an inactivation voltage step at -40 mV for 8 seconds, followed by a step of -100 mV for 20 ms, followed by a 20 ms step for 10 mV for Nav 1.8 or 0 mV for Nav 1.7 (TP1A) before returning to the holding voltage of -100 mV.
# (§6) The protocol was repeated at a frequency of 0.05 Hz and the amplitude of the current was quantified throughout the recording of the TP1A phase. The variation in the amplitude of the peak current was evaluated according to the formula described below, after exposing the cells expressing the channels to each concentration of the different compounds: % Block = (1−(ITP1A,molecule/ITP1A,basal)×100%, [formula] wherein ITP1A,basal and ITP1A,molecule represent the peaks of sodium current input into TP1A before exposure to the compound and in the presence of the compound, respectively.
# (§7) Data were obtained by nonlinear regression (nonlinear least squares) with XLfit for Excel (Microsoft, Redmond, WA).
# (§8) The compounds were tested in at least one assay to obtain the value of CI50. For compounds that were tested in two or more assays, the results are described as the mean of the CI50 values.
# [2] = biological target: T2, human sodium channels Nav 1.7 (Homo sapiens, UniProt Q15858); assay: Automated whole-cell voltage-clamp (ScreenPatch 384P) sodium current block, Nav 1.7; assay type: cell-based; conditions: CHO cells stably expressing human Nav 1.7; inactivation step -40 mV for 8 seconds, test step 0 mV (TP1A); exposure at least five minutes; room temperature; mean if two or more assays; read-out: Nav1.7 IC50
# T2 construct: expressed in transfected cells
# Method: as §1, §2, §3, §4, §5, §6, §7, §8
# T1 sequence (Q9Y5Y9 whole entry): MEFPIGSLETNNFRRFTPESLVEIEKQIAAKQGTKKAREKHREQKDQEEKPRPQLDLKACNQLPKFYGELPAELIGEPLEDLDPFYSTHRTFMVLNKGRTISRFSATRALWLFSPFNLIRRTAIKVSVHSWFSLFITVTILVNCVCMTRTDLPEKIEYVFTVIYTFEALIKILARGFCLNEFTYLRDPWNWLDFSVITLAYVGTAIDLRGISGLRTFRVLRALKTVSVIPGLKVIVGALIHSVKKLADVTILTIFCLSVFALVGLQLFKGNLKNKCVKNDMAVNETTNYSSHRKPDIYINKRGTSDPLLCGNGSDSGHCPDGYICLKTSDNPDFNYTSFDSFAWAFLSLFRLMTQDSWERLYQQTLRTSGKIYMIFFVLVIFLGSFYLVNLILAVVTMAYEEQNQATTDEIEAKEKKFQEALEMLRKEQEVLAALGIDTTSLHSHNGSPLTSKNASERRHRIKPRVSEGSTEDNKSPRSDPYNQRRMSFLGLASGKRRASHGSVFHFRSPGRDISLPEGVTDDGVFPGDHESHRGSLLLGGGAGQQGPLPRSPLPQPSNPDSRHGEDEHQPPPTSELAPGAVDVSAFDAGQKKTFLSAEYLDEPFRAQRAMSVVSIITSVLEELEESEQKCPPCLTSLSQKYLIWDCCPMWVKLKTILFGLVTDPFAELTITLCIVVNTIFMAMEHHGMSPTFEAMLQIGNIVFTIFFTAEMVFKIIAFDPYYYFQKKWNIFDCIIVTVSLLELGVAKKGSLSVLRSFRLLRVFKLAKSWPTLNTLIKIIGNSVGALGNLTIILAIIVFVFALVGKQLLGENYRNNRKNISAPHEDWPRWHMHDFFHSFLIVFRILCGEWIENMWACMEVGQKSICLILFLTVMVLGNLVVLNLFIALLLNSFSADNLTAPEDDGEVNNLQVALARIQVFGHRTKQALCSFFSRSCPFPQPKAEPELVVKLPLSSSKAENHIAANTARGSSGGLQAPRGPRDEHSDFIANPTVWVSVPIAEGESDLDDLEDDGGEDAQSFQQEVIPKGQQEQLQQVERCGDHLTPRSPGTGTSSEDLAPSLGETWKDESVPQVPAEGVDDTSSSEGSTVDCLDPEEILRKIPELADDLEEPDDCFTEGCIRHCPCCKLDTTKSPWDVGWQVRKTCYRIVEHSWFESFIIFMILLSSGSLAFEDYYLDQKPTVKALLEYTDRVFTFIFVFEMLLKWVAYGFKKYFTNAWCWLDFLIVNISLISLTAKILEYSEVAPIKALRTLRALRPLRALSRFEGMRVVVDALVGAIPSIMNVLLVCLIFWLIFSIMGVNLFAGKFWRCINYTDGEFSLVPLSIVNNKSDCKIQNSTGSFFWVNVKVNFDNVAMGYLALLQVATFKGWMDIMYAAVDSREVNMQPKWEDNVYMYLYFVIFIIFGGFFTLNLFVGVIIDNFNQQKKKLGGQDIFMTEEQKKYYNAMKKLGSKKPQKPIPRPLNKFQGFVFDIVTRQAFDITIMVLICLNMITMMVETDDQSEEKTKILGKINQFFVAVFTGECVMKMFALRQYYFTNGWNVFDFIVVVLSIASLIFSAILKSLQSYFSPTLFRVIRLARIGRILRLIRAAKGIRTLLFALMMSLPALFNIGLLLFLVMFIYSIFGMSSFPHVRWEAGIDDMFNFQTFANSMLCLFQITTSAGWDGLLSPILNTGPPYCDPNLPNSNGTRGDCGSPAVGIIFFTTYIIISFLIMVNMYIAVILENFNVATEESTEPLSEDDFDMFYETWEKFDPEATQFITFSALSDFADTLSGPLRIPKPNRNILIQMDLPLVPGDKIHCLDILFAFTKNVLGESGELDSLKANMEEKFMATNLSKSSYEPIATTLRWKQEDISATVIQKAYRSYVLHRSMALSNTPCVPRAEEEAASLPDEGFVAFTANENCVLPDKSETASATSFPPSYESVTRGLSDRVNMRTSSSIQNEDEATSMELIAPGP
# T2 sequence (Q15858 whole entry): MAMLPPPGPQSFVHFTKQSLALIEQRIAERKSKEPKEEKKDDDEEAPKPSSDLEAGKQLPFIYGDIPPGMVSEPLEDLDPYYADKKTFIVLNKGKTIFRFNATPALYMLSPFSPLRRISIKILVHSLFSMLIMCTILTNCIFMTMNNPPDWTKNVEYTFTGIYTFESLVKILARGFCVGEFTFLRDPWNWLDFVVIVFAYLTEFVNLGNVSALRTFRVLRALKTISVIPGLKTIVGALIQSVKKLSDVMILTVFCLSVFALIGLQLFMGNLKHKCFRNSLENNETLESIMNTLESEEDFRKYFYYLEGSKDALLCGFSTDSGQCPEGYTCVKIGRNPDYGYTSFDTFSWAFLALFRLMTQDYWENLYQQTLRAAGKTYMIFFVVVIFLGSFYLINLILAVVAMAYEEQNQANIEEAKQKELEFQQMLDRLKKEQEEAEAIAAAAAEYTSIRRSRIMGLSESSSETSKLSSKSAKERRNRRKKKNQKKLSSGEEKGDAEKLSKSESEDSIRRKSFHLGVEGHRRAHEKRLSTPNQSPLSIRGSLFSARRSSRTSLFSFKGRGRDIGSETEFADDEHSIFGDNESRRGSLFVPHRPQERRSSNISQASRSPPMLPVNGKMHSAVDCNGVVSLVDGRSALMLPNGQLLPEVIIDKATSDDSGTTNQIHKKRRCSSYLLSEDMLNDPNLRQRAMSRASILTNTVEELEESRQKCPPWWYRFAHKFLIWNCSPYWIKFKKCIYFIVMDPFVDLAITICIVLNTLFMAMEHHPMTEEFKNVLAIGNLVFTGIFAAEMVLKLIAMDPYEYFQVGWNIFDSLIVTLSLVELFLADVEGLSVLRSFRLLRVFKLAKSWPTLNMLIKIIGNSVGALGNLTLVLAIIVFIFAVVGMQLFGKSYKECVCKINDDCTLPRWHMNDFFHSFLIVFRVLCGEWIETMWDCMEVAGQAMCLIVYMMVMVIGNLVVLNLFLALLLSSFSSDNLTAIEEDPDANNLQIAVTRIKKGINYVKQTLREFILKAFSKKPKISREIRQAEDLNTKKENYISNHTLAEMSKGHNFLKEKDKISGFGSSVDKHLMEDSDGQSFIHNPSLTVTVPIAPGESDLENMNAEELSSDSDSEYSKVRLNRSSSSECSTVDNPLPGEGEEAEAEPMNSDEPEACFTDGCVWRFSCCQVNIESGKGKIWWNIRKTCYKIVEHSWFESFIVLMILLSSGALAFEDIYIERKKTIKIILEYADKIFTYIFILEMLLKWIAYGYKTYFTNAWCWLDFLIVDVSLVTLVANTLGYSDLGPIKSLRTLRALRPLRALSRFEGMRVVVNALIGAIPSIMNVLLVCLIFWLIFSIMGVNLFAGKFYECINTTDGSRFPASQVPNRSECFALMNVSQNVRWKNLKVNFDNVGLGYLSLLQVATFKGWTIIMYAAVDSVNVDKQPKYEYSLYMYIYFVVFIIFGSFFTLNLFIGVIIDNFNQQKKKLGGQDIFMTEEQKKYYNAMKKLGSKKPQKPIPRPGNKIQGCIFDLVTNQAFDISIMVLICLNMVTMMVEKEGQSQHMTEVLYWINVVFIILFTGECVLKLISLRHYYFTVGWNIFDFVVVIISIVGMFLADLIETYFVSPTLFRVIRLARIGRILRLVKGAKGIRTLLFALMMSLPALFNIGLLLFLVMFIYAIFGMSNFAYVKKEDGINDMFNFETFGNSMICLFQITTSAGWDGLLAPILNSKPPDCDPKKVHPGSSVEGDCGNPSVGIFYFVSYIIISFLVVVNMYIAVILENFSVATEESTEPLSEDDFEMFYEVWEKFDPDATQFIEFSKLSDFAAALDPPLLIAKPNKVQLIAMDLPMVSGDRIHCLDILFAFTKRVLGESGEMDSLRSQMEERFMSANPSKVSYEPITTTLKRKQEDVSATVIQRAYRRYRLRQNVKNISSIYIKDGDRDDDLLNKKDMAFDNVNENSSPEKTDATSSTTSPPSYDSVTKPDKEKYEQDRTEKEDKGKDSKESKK
structure (smiles),measurement,setting,value
"CCOc1ccc(-c2cncc(C(=O)NOCc3cc(OC(C)C)ccc3F)n2)cc1 [Compound 10, 6-(4-ethoxyphenyl)-N-((2-fluoro-5-isopropoxybenzyl)oxy)pyrazine-2-carboxamide]",pIC50,[1],> 6.30
same,pIC50,[2],< 6.00
"COc1ccc(F)c(CONC(=O)c2cncc(-c3ccc(OC4CN(C)C4)cc3)n2)c1 [Compound 25, N-((2-fluoro-5-methoxybenzyl)oxy)-6-(4-((1-methylazetidine-3-yl)oxy)phenyl)pyrazine-2-carboxamide]",pIC50,[1],6.00 to 6.30
same,pIC50,[2],< 6.00
"CCOc1ccc(-c2cncc(C(=O)NOCc3ccccc3F)n2)cn1 [Compound 32, 6-(6-ethoxypyridine-3-yl)-N-((2-fluorobenzyl)oxy)pyrazine-2-carboxamide]",pIC50,[1],6.00 to 6.30
same,pIC50,[2],< 6.00
"CCOc1ccc(-c2cncc(C(=O)NOCc3cc(OC)cnc3C)n2)cn1 [Compound 46, 6-(6-ethoxypyridine-3-yl)-N-((5-methoxy-2-methylpyridine-3-yl)methoxy)pyrazine-2-carboxamide]",pIC50,[1],< 6.00
same,pIC50,[2],< 6.00
"CCOc1ccc(-c2cncc(C(=O)NOCc3cc(OC)ccc3F)n2)cn1 [Compound 37, 6-(6-ethoxypyridine-3-yl)-N-((2-fluoro-5-methoxybenzyl)oxy)pyrazine-2-carboxamide]",pIC50,[1],> 6.30
same,pIC50,[2],< 6.00
"CCOc1ccc(-c2cncc(C(=O)NOCc3cccc(O)c3)n2)cn1 [Compound 35, 6-(6-ethoxypyridine-3-yl)-N-((3-hydroxybenzyl)oxy)pyrazine-2-carboxamide]",pIC50,[1],> 6.30
same,pIC50,[2],< 6.00
CCOc1ccc(-c2nc(C(=O)NOCc3cc(OC)ccc3F)cnc2F)cn1 [Compound 104],pIC50,[1],> 6.30
same,pIC50,[2],< 6.00
COc1ccc(F)c(CONC(=O)c2cncc(-c3ccc([S+](C)[O-])nc3)n2)c1 (stereo not drawn) [Compound 84],pIC50,[1],> 6.30
same,pIC50,[2],< 6.00
"[2H]C([2H])([2H])Oc1ccc(F)c(C([2H])([2H])ONC(=O)c2cncc(-c3ccc(OC([2H])([2H])C([2H])([2H])[2H])nc3)n2)c1 [Compound 54, 6-(6-(ethoxy-d5)pyridine-3-yl)-N-((2-fluoro-5-(methoxy-d3)phenyl)methoxy-d2)pyrazine-2-carboxamide]",pIC50,[1],< 6.00
same,pIC50,[2],< 6.00
"CCOc1ccc(-c2cncc(C(=O)NOCc3cccc(OC)c3)n2)cc1 [Compound 5, 6-(4-ethoxyphenyl)-N-((3-methoxybenzyl)oxy)pyrazine-2-carboxamide]",pIC50,[1],> 6.30
same,pIC50,[2],< 6.00
COc1cccc(CONC(=O)c2cncc(-c3ccc(OC(F)(F)F)nc3)n2)c1 [Compound 72],pIC50,[1],> 6.30
same,pIC50,[2],> 6.30
"CCOc1ccc(-c2cncc(C(=O)NOCc3cc(OC)ccc3Cl)n2)cc1 [Compound 11, N-((2-chloro-5-methoxybenzyl)oxy)-6-(4-ethoxyphenyl)pyrazine-2-carboxamide]",pIC50,[1],> 6.30
same,pIC50,[2],6.00 to 6.30
COc1ccc(F)c(CONC(=O)c2cncc(-c3ccc(OC(F)F)nc3)c2)c1 [Compound 116],pIC50,[1],> 6.30
same,pIC50,[2],< 6.00
"COc1ccc(F)c(CONC(=O)c2cncc(-c3ccc(OCC4CN(C)C4)cc3)n2)c1 [Compound 26, N-((2-fluoro-5-methoxybenzyl)oxy)-6-(4-((1-methylazetidine-3-yl)methoxy)phenyl)pyrazine-2-carboxamide]",pIC50,[1],> 6.30
same,pIC50,[2],6.00 to 6.30
"COc1ccc(F)c(CONC(=O)c2cncc(-c3ccc(OCC4CNC4)cc3)n2)c1 [Compound 23, 6-(4-(azetidine-3-ylmethoxy)phenyl)-N-((2-fluoro-5-methoxybenzyl)oxy)pyrazine-2-carboxamide]",pIC50,[1],< 6.00
same,pIC50,[2],< 6.00
"CCOc1ccc(-c2cncc(C(=O)NOCc3cc(C)cc(C)c3)n2)cc1 [Compound 21, N-((3,5-dimethylbenzyl)oxy)-6-(4-ethoxyphenyl)pyrazine-2-carboxamide]",pIC50,[1],< 6.00
same,pIC50,[2],< 6.00
CCOc1ccc(-c2nccc(C(=O)NOCc3cc(OC)cnc3F)n2)cn1 [Compound 110],pIC50,[1],> 6.30
same,pIC50,[2],6.00 to 6.30
"CCOc1ccc(-c2cncc(C(=O)NOCc3cc(N(C)C)cnc3F)n2)cn1 [Compound 42, N-((5-(dimethylamino)-2-fluoropyridine-3-yl)methoxy)-6-(6-ethoxypyridine-3-yl)pyrazine-2-carboxamide]",pIC50,[1],> 6.30
same,pIC50,[2],< 6.00
CCOc1ccc(-c2cncc(C(=O)NOCc3cn(C(C)C)cn3)n2)cn1 [Compound 70],pIC50,[1],> 6.30
same,pIC50,[2],6.00 to 6.30
COc1cnc(F)c(CONC(=O)c2ccnc(-c3ccc(OC(F)F)nc3)n2)c1 [Compound 117],pIC50,[1],< 6.00
same,pIC50,[2],< 6.00
CCOc1ccc(-c2nc(O)cc(C(=O)NOCc3cc(OC)ccc3F)n2)cc1 [Compound 112],pIC50,[1],> 6.30
same,pIC50,[2],< 6.00
"CCOc1ccc(-c2cncc(C(=O)NOCc3cncc(OC)c3)n2)cn1 [Compound 36, 6-(6-ethoxypyridine-3-yl)-N-((5-methoxypyridine-3-yl)methoxy)pyrazine-2-carboxamide]",pIC50,[1],> 6.30
same,pIC50,[2],< 6.00
O=C(NOCc1ccccc1F)c1cncc(-c2ccc(OC(F)(F)F)nc2)n1 [Compound 71],pIC50,[1],> 6.30
same,pIC50,[2],> 6.30
"COc1ccc(F)c(CONC(=O)c2cncc(-c3ccc(OC)nc3)n2)c1 [Compound 30, N-((2-fluoro-5-methoxybenzyl)oxy)-6-(6-methoxypyridine-3-yl)pyrazine-2-carboxamide]",pIC50,[1],> 6.30
same,pIC50,[2],< 6.00
COc1ccc(F)c(CONC(=O)c2cnc(N)c(-c3ccc(OC(F)F)nc3)n2)c1 [Compound 122],pIC50,[1],< 6.00
same,pIC50,[2],< 6.00
"CCOc1ccc(-c2cncc(C(=O)NOCc3cccn3C)n2)cn1 [Compound 60, 6-(6-ethoxypyridine-3-yl)-N-((1-methyl-1H-pyrrole-2-yl)methoxy)pyrazine-2-carboxamide]",pIC50,[1],> 6.30
same,pIC50,[2],6.00 to 6.30
"[2H]C([2H])([2H])COc1ccc(-c2cncc(C(=O)NOCc3cc(OC)ccc3F)n2)cn1 [Compound 49, 6-(6-(ethoxy-2,2,2-d3)pyridine-3-yl)-N-((2-fluoro-5-methoxybenzyl)oxy)pyrazine-2-carboxamide]",pIC50,[1],< 6.00
same,pIC50,[2],< 6.00
CCOc1ccc(-c2cncc(C(=O)NOCc3cc(OC)ccc3F)n2)c(C)n1 [Compound 92],pIC50,[1],> 6.30
same,pIC50,[2],< 6.00
COc1ccc(F)c(CONC(=O)c2cncc(-c3ccc(OC(F)(F)F)nc3)n2)c1 [Compound 76],pIC50,[1],> 6.30
same,pIC50,[2],6.00 to 6.30
"CCOc1ccc(-c2cncc(C(=O)NOCc3cc(C(C)N)ccc3F)n2)cn1 (stereo not drawn) [Compound 45, N-((5-(1-aminoethyl)-2-fluorobenzyl)oxy)-6-(6-ethoxypyridine-3-yl)pyrazine-2-carboxamide]",pIC50,[1],< 6.00
same,pIC50,[2],< 6.00
"COc1ccc(F)c(CONC(=O)c2cncc(-c3ccc(OC(C)C)nc3)n2)c1 [Compound 31, N-((2-fluoro-5-methoxybenzyl)oxy)-6-(6-isopropoxypyridine-3-yl)pyrazine-2-carboxamide]",pIC50,[1],6.00 to 6.30
same,pIC50,[2],< 6.00
CCOc1ccc(-c2cncc(C(=O)NOCc3ccnn3C)n2)cn1 [Compound 58],pIC50,[1],< 6.00
same,pIC50,[2],< 6.00
"CCOc1ccc(-c2cncc(C(=O)NOCc3cc(OC)ccc3O)n2)cc1 [Compound 16, 6-(4-ethoxyphenyl)-N-((2-hydroxy-5-methoxybenzyl)oxy)pyrazine-2-carboxamide]",pIC50,[1],< 6.00
same,pIC50,[2],< 6.00
"CCOc1ccc(-c2cncc(C(=O)NOCc3ccnn3CC)n2)cn1 [Compound 62, 6-(6-ethoxypyridine-3-yl)-N-((1-ethyl-1H-pyrazole-5-yl)methoxy)pyrazine-2-carboxamide]",pIC50,[1],< 6.00
same,pIC50,[2],< 6.00
"COc1ccc(F)c(CONC(=O)c2cncc(-c3ccc(OC4CNC4)cc3)n2)c1 [Compound 22, 6-(4-(azetidin-3-yloxy)phenyl)-N-((2-fluoro-5-methoxybenzyl)oxy)pyrazine-2-carboxamide]",pIC50,[1],< 6.00
same,pIC50,[2],< 6.00
"CCOc1ccc(-c2cncc(C(=O)NOCc3cc(OC)cnc3C)n2)cc1 [Compound 18, 6-(4-ethoxyphenyl)-N-((5-methoxy-2-methylpyridine-3-yl)methoxy)pyrazine-2-carboxamide]",pIC50,[1],> 6.30
same,pIC50,[2],6.00 to 6.30
